{"source": "patent US20250221409A1", "about": "“COMPOSITION FOR POTENTIATING EFFECTS OF USEFUL SUBSTANCE” (KANEKA CORPORATION, priority 2022, published 2025)", "test_system": "soybean leaves", "assay": "Promotion of herbicide (PQ) effects: SPAD values of soybean leaves after spraying test solutions", "format": "in vivo, soybean (variety Fukuyutaka)", "details": "Experimental Example 2-1 (FIG. 4); PQ 0.001 mass %, surfactin 0.001 mass %, lecithin 0.0005 mass %; 3 days after application", "experimental": "Culture soil was filled into 9-cm vinyl pots, and soybean seeds (the variety: Fukuyutaka) were seeded at 3 grains/pot. Cultivation was performed in a glass greenhouse, and, after germination, strains were thinned to retain a strain in a pot. The test solutions shown in Table 4 were sprayed on leaves 3 seeks after seeding. The test solutions were prepared by dissolving the components in water. The SPAD (soil and plant analyzer development) values of the leaves were measured using a chlorophyll meter (product name: SPAD-502Plus, Konica Minolta, Inc.) 3 days after application of the test solutions. The SPAD values are used as the indicators showing the chlorophyll amount of plants.\nCulture soil was filled into 9-cm vinyl pots, and soybean seeds (the variety: Fukuyutaka) were seeded at 3 grains/pot. Cultivation was performed in a glass greenhouse, and, after germination, strains were thinned to retain a strain in a pot. The test solutions shown in Table 5 were sprayed on leaves 3 seeks after seeding. The test solutions were prepared by dissolving the components in water. When lecithin was to be added, at the outset, lecithin was dissolved in water, and a biosurfactant was added to reach a given concentration. The SPAD values of the leaves were measured using a chlorophyll meter 3 days after application of the test solutions.", "data": [{"compound": "C[n+]1ccc(-c2cc[n+](C)cc2)cc1", "note": "[PQ, paraquat dichloride]", "values": [{"measurement": "SPAD values of the leaves", "result": "not substantially different from the SPAD values of the control"}]}]}
